Results reported in US11034650B2, “Compounds useful for treating a Mannheimia haemolytica or Histophilus somni infection” (Intervet Inc., priority 2016, dated 2021).
In brackets after ≈: the same amount, converted by molar mass.

Legend:
Format in all cases: cell-based
[1] = system: Mannheimia haemolytica MH 6357 (M7/2, reference strain, cattle infection strain); experiment: MIC, broth-microdilution (CLSI VET01-A4), strain MH 6357; conditions: Mannheimia haemolytica strain MH 6357, broth-microdilution; unit assumed
Method: (§1) For example, representative compounds were tested against ***, Mannheimia haemolytica and Pasteurella multocida, using the conventional broth-dilution assay.
(§2) The Minimum inhibitory concentrations (MIC) of compounds according to the invention for a number of veterinary bacterial pathogens were determined by the broth-microdilution method according to CLSI document VET01-A4.
(§3) Microdilution trays containing a doubling dilution series of the test compound were used for the tests. The MIC results were interpreted according to the CLSI documents VET01-S3. The lowest concentration of compound at which no visible growth (i.e. no turbidity) detected by the unaided eye was recorded as the MIC.

[2] = system: Mannheimia haemolytica MH 6374 (ATCC 33396, reference strain); experiment: MIC, broth-microdilution (CLSI VET01-A4), strain MH 6374; conditions: Mannheimia haemolytica strain MH 6374, broth-microdilution; unit assumed
Method: as §1, §2, §3

[3] = system: Mannheimia haemolytica MH 10720 (154, BRD field isolate); experiment: MIC, broth-microdilution (CLSI VET01-A4), strain MH 10720; conditions: Mannheimia haemolytica strain MH 10720, broth-microdilution; unit assumed
Method: as §1, §2, §3

[4] = system: Mannheimia haemolytica MH 12587 (1071, BRD field isolate, macrolide-resistance: erm+, E+); experiment: MIC, broth-microdilution (CLSI VET01-A4), strain MH 12587; conditions: Mannheimia haemolytica strain MH 12587, broth-microdilution; unit assumed
Method: as §1, §2, §3

[5] = system: Mannheimia haemolytica MH 13065 (XB0446-6003.9, BRD field isolate); experiment: MIC, broth-microdilution (CLSI VET01-A4), strain MH 13065; conditions: Mannheimia haemolytica strain MH 13065, broth-microdilution; unit assumed
Method: as §1, §2, §3

[6] = system: Mannheimia haemolytica MH 13093 (XB0472-6014.1, BRD field isolate); experiment: MIC, broth-microdilution (CLSI VET01-A4), strain MH 13093; conditions: Mannheimia haemolytica strain MH 13093, broth-microdilution; unit assumed
Method: as §1, §2, §3

[7] = system: Pasteurella multocida PM 6267 (P 2225 (L386), reference strain, mouse infection strain); experiment: MIC, broth-microdilution (CLSI VET01-A4), strain PM 6267; conditions: Pasteurella multocida strain PM 6267, broth-microdilution; unit assumed
Method: as §1, §2, §3

[8] = system: Pasteurella multocida PM 6391 (ATCC 43137, reference strain); experiment: MIC, broth-microdilution (CLSI VET01-A4), strain PM 6391; conditions: Pasteurella multocida strain PM 6391, broth-microdilution; unit assumed
Method: as §1, §2, §3

[9] = system: Pasteurella multocida PM 12080 (IV102277-0093, BRD field isolate); experiment: MIC, broth-microdilution (CLSI VET01-A4), strain PM 12080; conditions: Pasteurella multocida strain PM 12080, broth-microdilution; unit assumed
Method: as §1, §2, §3

[10] = system: Pasteurella multocida PM 10775 (080130003051, BRD field isolate); experiment: MIC, broth-microdilution (CLSI VET01-A4), strain PM 10775; conditions: Pasteurella multocida strain PM 10775, broth-microdilution; unit assumed
Method: as §1, §2, §3

Compound | MIC PM 6267 [7] [µg/mL] | MIC PM 6391 [8] [µg/mL] | MIC PM 12080 [9] [µg/mL] | MIC PM 10775 [10] [µg/mL] | MIC MH 6357 [1] [µg/mL] | MIC MH 6374 [2] [µg/mL] | MIC MH 10720 [3] [µg/mL] | MIC MH 12587 [4] [µg/mL] | MIC MH 13065 [5] [µg/mL] | MIC MH 13093 [6] [µg/mL]
CC(C)(O)[C@H](NC(=O)c1ccc(C#Cc2ccc(CN3CCCC3)cc2)cc1)C(=O)NO [Compound 225] | ≤ 0.1 | 0.8 (≈ 1.84 µM) | 0.8 (≈ 1.84 µM) | – | 12.5 (≈ 28.7 µM) | 6.3 (≈ 14.5 µM) | 1.6 (≈ 3.67 µM) | 12.5 (≈ 28.7 µM) | 12.5 (≈ 28.7 µM) | 12.5 (≈ 28.7 µM)
CC(C)(C)C1CCN(Cc2ccc(C#Cc3ccc(C(=O)N[C@@H](CO)C(=O)NO)cc3)cc2)CC1 [Compound 79] | 0.4 (≈ 0.838 µM) | – | 1.6 (≈ 3.35 µM) | ≤ 0.1 | 12.5 (≈ 26.2 µM) | 25 (≈ 52.3 µM) | 3.1 (≈ 6.49 µM) | 25 (≈ 52.3 µM) | 12.5 (≈ 26.2 µM) | 25 (≈ 52.3 µM)
CC(C)[C@H](NC(=O)c1ccc(C#Cc2cccc(CNCC(C)(C)C)c2)cc1)C(=O)NO [Compound 27] | 3.1 (≈ 7.12 µM) | – | 6.3 (≈ 14.5 µM) | 0.8 (≈ 1.84 µM) | 12.5 (≈ 28.7 µM) | 12.5 (≈ 28.7 µM) | 3.1 (≈ 7.12 µM) | 25 (≈ 57.4 µM) | 25 (≈ 57.4 µM) | 25 (≈ 57.4 µM)
O=C(N[C@@H](CO)C(=O)NO)c1ccc(C#Cc2ccc(CN3CCOCC3)cc2)cc1 [Compound 77] | ≤ 0.1 | – | 0.8 (≈ 1.89 µM) | ≤ 0.1 | 6.3 (≈ 14.9 µM) | 1.6 (≈ 3.78 µM) | 0.8 (≈ 1.89 µM) | 3.1 (≈ 7.32 µM) | 3.1 (≈ 7.32 µM) | 3.1 (≈ 7.32 µM)
COc1ccc(CNCc2ccc(C#Cc3ccc(C(=O)N[C@@H](CO)C(=O)NO)cc3)cc2)cc1 [Compound 88] | 0.2 (≈ 0.422 µM) | – | 1.6 (≈ 3.38 µM) | ≤ 0.1 | 6.3 (≈ 13.3 µM) | 1.6 (≈ 3.38 µM) | 1.6 (≈ 3.38 µM) | 6.3 (≈ 13.3 µM) | 3.1 (≈ 6.55 µM) | 12.5 (≈ 26.4 µM)
O=C(N[C@@H](CO)C(=O)NO)c1ccc(C#Cc2ccc(CNCc3ccncc3)cc2)cc1 [Compound 90] | ≤ 0.1 | – | 0.8 (≈ 1.8 µM) | ≤ 0.1 | 3.1 (≈ 6.97 µM) | 1.6 (≈ 3.6 µM) | 1.6 (≈ 3.6 µM) | 3.1 (≈ 6.97 µM) | 1.6 (≈ 3.6 µM) | 1.6 (≈ 3.6 µM)
CC(C)[C@H](NC(=O)c1ccc(C#Cc2cccc(CNCc3ccncc3)c2)cc1)C(=O)NO [Compound 46] | 1.6 (≈ 3.5 µM) | – | 6.3 (≈ 13.8 µM) | 0.2 (≈ 0.438 µM) | 6.3 (≈ 13.8 µM) | 6.3 (≈ 13.8 µM) | 1.6 (≈ 3.5 µM) | 12.5 (≈ 27.4 µM) | 6.3 (≈ 13.8 µM) | 6.3 (≈ 13.8 µM)

Continued, in another order:

MIC PM 6267 [7] [µg/mL] | MIC PM 6391 [8] [µg/mL] | MIC PM 12080 [9] [µg/mL] | MIC PM 10775 [10] [µg/mL] | Compound | MIC MH 6357 [1] [µg/mL] | MIC MH 6374 [2] [µg/mL] | MIC MH 10720 [3] [µg/mL] | MIC MH 12587 [4] [µg/mL] | MIC MH 13065 [5] [µg/mL] | MIC MH 13093 [6] [µg/mL]
≤ 0.1 | – | ≤ 0.1 | ≤ 0.1 | CC(C)[C@H](NC(=O)c1ccc(C#Cc2ccc(CNCC#N)cc2)cc1)C(=O)NO [Compound 204] | 0.4 (≈ 0.989 µM) | 0.4 (≈ 0.989 µM) | ≤ 0.1 | 0.8 (≈ 1.98 µM) | 0.2 (≈ 0.494 µM) | 0.4 (≈ 0.989 µM)
≤ 0.1 | – | ≤ 0.1 | ≤ 0.1 | CC[C@H](C)[C@H](NC(=O)c1ccc(C#Cc2ccc(CNCC#N)cc2)cc1)C(=O)NO [Compound 192] | 0.8 (≈ 1.91 µM) | 1.6 (≈ 3.82 µM) | 0.2 (≈ 0.478 µM) | 3.1 (≈ 7.41 µM) | 0.8 (≈ 1.91 µM) | 0.8 (≈ 1.91 µM)
0.2 (≈ 0.408 µM) | – | 0.8 (≈ 1.63 µM) | ≤ 0.1 | CC(C)[C@H](NC(=O)c1ccc(C#Cc2ccc(CNCc3ccc(Cl)cc3)cc2)cc1)C(=O)NO [Compound 106] | 0.8 (≈ 1.63 µM) | 0.8 (≈ 1.63 µM) | 0.2 (≈ 0.408 µM) | 1.6 (≈ 3.27 µM) | 0.8 (≈ 1.63 µM) | 1.6 (≈ 3.27 µM)
3.1 (≈ 6.25 µM) | – | 3.1 (≈ 6.25 µM) | 0.8 (≈ 1.61 µM) | CC[C@H](C)[C@H](NC(=O)c1ccc(C#Cc2ccc(CN3CCc4ccccc4C3)cc2)cc1)C(=O)NO [Compound 124] | 6.3 (≈ 12.7 µM) | 12.5 (≈ 25.2 µM) | 3.1 (≈ 6.25 µM) | 25 (≈ 50.4 µM) | 12.5 (≈ 25.2 µM) | 12.5 (≈ 25.2 µM)
